From patent publication US20250034139A1, “AMINE COMPOUNDS HAVING ANTI-INFLAMMATORY, ANTIFUNGAL, ANTIPARASITIC, AND ANTICANCER ACTIVITY” (PHARMA CINQ, LLC, priority 2013, published 2025) come the findings set out here.

Test [1] deals with EAE induced by PLP139-151. Description: Example G: Experimental Autoimmune Encephalitis (EAE) mouse model of multiple sclerosis. In kind it is in vivo.
In test [2] the test system is Vit-D3 activated THP-1 cells. The experiment in a line: Example B: viable cell count, AC vs chloroquine, +/- LPS. Particulars: LPS-stimulated and basal THP-1 cells, 5 hours. It is filed as cell-based, Human. The procedure:
• 1. Vit-D3 activated THP-1 cells (0.5×10^6 cells in 2 ml) were transferred to the wells of a 24-well dish • 2. Compound AC was added at a concentration of 0.5 μM, 1.0 μM or 5.0 μM • 3. […] LPS from E. coli 0111:B4 (1 ng/ml final concentration) was added to some wells • 5. After 5 hours viable cell count, Acridine Orange (A.O.) uptake and JC-1 mitochondrial loading were determined by fluorescence-activated cell sorting (FACS)
(§1) THP-1 cells (p39) treated with 0.1 μM vit-D3 (100 μM) in DMSO] for 3 days were counted, spun down, resuspended in serum-free RPMI (Lonza 12-115F) and transferred to the wells of two 24-well dishes (0.5×10^6 cells in 2 ml). […] Crude-LPS from E. coli 0111:B4 was added to some wells (1 ng/ml final conc) and the plates placed in a 37 C incubator. 1 μl of Baf A1 (50 nM final conc) was added to one well (no LPS) at T=4 hours to serve as a compensation control for Acridine Orange loading. After 5 hours, 500 μl aliquots of cells were transferred to FACS tubes and viable cell counts, A.O. loading and JC-1 accumulation determined by FACS.
The tubes were washed twice in DPBS, resuspended in 500 μl DPBS and acquired on the FACSCalibur.

Test [3] concerns Vit-D3 activated THP-1 cells. The experiment in a line: Example B: Acridine Orange (A.O.) uptake, lysosomal acidification and integrity. In kind it is cell-based, Human. The settings on record: 5 hours. The procedure: In this experiment, cell viability was monitored and uptake and accumulation of acridine orange, a lysosomotropic fluorescent dye, was used to assess lysosomal acidification and integrity. JC-1 dye was used to measure effects of test compounds on mitochondrial membrane potential (MMP); reduction of MMP is a feature of apoptotic cell death. • 1. […] The tubes were washed twice in DPBS, resuspended in 500 μl DPBS and acquired on the FACSCalibur.

The subject of test [4] is Vit-D3 activated THP-1 cells. Description: Example B: JC-1 mitochondrial loading (mitochondrial membrane potential). In kind it is cell-based, Human. The settings on record: 5 hours. The procedure:
In this experiment, cell viability was monitored and uptake and accumulation of acridine orange, a lysosomotropic fluorescent dye, was used to assess lysosomal acidification and integrity. JC-1 dye was used to measure effects of test compounds on mitochondrial membrane potential (MMP); reduction of MMP is a feature of apoptotic cell death.
• 1. Vit-D3 activated THP-1 cells (0.5×10^6 cells in 2 ml) were transferred to the wells of a 24-well dish • 2. […] […] LPS from E. coli 0111:B4 (1 ng/ml final concentration) was added to some wells • 5. After 5 hours viable cell count, Acridine Orange (A.O.) uptake and JC-1 mitochondrial loading were determined by fluorescence-activated cell sorting (FACS)
as §1

With `CCCCCCOc1cccc(OCCCNc2ccnc3ccccc23)c1` [AZ, N-{3-[3-(Hexyloxy)phenoxy]propyl}quinolin-4-amine], the “EAE Score on Day 46” value in test [1] (60 μmol/kg by oral gavage from Day 14, score 0-5) is listed as 2.50 ± 0.29. Further, in test [1] (baseline, score 0-5), the “EAE Score on Day 14 (Before Treatment)” value turned out to be 0.83 ± 0.41.
With `CCCCCCOc1cccc(CNc2ccnc3ccccc23)c1` [Compound AC, N-[3-(Hexyloxy)benzyl]quinolin-4-amine], the “potency of AC relative to chloroquine for inactivating macrophages (THP-1 cells)” value in test [2] is reported as “approximately 100 fold”. Further, the “A.O. FL-3 fluorescence (MFI) percent change from DMSO no LPS, Mean ± SE” value is −54.72 ± 2.74% in test [3] (0.1 μM AC, 1 ng/ml LPS); −27.64 ± 9.68% in test [3] (0.1 μM AC, No LPS); −68.24 ± 2.39% in test [3] (0.5 μM AC, 1 ng/ml LPS); −54.59 ± 4.05% in test [3] (0.5 μM AC, No LPS); −81.11 ± 2.65% in test [3] (1.0 μM AC, 1 ng/ml LPS); −69.52 ± 2.05% in test [3] (1.0 μM AC, No LPS). The “JC-1 Red cells (functional mitochondria) percent change from DMSO (no LPS), Mean ± SE” value in test [4] (0.1 μM AC, 1 ng/ml LPS) is on record as −1.66 ± 0.96%; in test [4] (0.1 μM AC, No LPS), 1.18 ± 0.91%; in test [4] (0.5 μM AC, 1 ng/ml LPS) it was −7.19 ± 1.52%; in test [4] (0.5 μM AC, No LPS), −4.39 ± 1.40%; in test [4] (1.0 μM AC, 1 ng/ml LPS), −16.41 ± 2.60%; in test [4] (1.0 μM AC, No LPS) it was −10.40 ± 2.08%.
